Measurements reported in US20170234889A1, “hGH Determination for Use to Guide Prevention of a Major Adverse Cardiac Event or a Cardiovascular Disease in a Subject” (Sphingotec GmbH, priority 2014, published 2017).

What was measured:
Format in all cases: in vivo, human
[1] = system: subjects with plaque in the right carotid artery but no symptoms of carotid artery disease; assay: BCAPS: LDL-C under treatment; settings: 12 months of treatment
Description: The β-Blocker Cholesterol-Lowering Asymptomatic Plaque Study (BCAPS) was a randomized, double blind, placebo-controlled, single-center clinical trial that took place between 1994 and 1999. A detailed description of BCAPS can be found in the original paper (Hedblad et al. 2001. Circulation 103: 1721-1726), following here is a brief summary. The original study population consisted of 361 men and 432 women (total n=793) 49 to 70 years of age recruited from MDC-CC. Subjects included in BCAPS had plaque in the right carotid artery but no symptoms of carotid artery disease. […] HDL-C, total cholesterol and TG were measured according to standard procedures at the Department of Clinical Chemistry, University Hospital of Malmö. LDL-C levels were calculated according to the Friedewald formula. GH levels were measured in stored fasting plasma samples, which were frozen immediately to −80° C. at the different examinations. […] All samples were measured using the hs-hGH immunoassay as described above.

[2] = system: subjects with plaque in the right carotid artery but no symptoms of carotid artery disease; assay: BCAPS: carotid ultrasound intima media thickness (IMT); settings: 36 months; for IMTbulb, median: maximum IMT at the carotid bifurcation; for IMTcca, median: mean IMT in the common carotid artery
Description: The β-Blocker Cholesterol-Lowering Asymptomatic Plaque Study (BCAPS) was a randomized, double blind, placebo-controlled, single-center clinical trial that took place between 1994 and 1999. A detailed description of BCAPS can be found in the original paper (Hedblad et al. 2001. Circulation 103: 1721-1726), following here is a brief summary. The original study population consisted of 361 men and 432 women (total n=793) 49 to 70 years of age recruited from MDC-CC. Subjects included in BCAPS had plaque in the right carotid artery but no symptoms of carotid artery disease. Exclusion criteria were: myocardial infarction, angina pectoris or stroke within the previous 3 months; previous surgery in the right carotid artery; regular use of β-blockers or statins; blood pressure >160 (systolic) or >95 (diastolic) mm Hg; total cholesterol >8.0 mmol/l; hyperglycemia suspected to require insulin treatment; and conditions that in the view of the investigator made the participant unsuitable for the trial. The study consisted of 4 different treatment groups and the participants were randomized to 1 of the following: placebo/placebo, metoprolol CR/XL (25 mg once daily)/placebo, fluvastatin (40 mg once daily)/placebo or metoprolol CR/XL (25 mg once daily)/fluvastatin (40 mg once daily). Carotid ultrasound was performed at baseline, 18 and 36 months (Hedblad et al. 2001. Circulation 103: 1721-1726). In brief, a predefined extent of the right carotid bifurcation was scanned for presence of plaques and the maximum IMT at the bifurcation (IMTbulb) and the mean IMT in the common carotid artery ([…]) was measured.

[3] = system: subjects with plaque in the right carotid artery but no symptoms of carotid artery disease; assay: BCAPS: fasting plasma hs-GH under treatment; settings: for Growth Hormone - females, geometric mean / Growth Hormone - males, geometric mean: 12 months of treatment, fasting plasma
Description: The β-Blocker Cholesterol-Lowering Asymptomatic Plaque Study (BCAPS) was a randomized, double blind, placebo-controlled, single-center clinical trial that took place between 1994 and 1999. A detailed description of BCAPS can be found in the original paper (Hedblad et al. 2001. Circulation 103: 1721-1726), following here is a brief summary. The original study population consisted of 361 men and 432 women (total n=793) 49 to 70 years of age recruited from MDC-CC. Subjects included in BCAPS had plaque in the right carotid artery but no symptoms of carotid artery disease. Exclusion criteria were: myocardial infarction, angina pectoris or stroke within the previous 3 months; previous surgery in the right carotid artery; regular use of β-blockers or statins; blood pressure >160 (systolic) or >95 (diastolic) mm Hg; total cholesterol >8.0 mmol/l; hyperglycemia suspected to require insulin treatment; and conditions that in the view of the investigator made the participant unsuitable for the trial. The study consisted of 4 different treatment groups and the participants were randomized to 1 of the following: placebo/placebo, metoprolol CR/XL (25 mg once daily)/placebo, fluvastatin (40 mg once daily)/placebo or metoprolol CR/XL (25 mg once daily)/fluvastatin (40 mg once daily). The treatment period was 36-months. Fasting blood samples were drawn at baseline and at 12, 24 and 36 months. HDL-C, total cholesterol and TG were measured according to standard procedures at the Department of Clinical Chemistry, University Hospital of Malmö. LDL-C levels were calculated according to the Friedewald formula. GH levels were measured in stored fasting plasma samples, which were frozen immediately to −80° C. at the different examinations. A number of the samples stored in the freezer were missing or had insufficient plasma for the analysis of hs-GH. Subjects in which either the baseline-value of GH or the 12-month value of GH was missing were excluded from further analysis. After this adjustment the study consisted of 472 individuals. All samples were measured using the hs-hGH immunoassay as described above. In the analyses where treatment groups are compared, the groups are either the 4 randomization groups or they are divided in to 2 groups which are fluvastatin vs non-fluvastatin (i.e placebo) or metoprolol vs non-metoprolol. Since fasting hs-GH is known to differ between men and women all models were performed separate for men and women as well as combined. All models were adjusted for age, sex (if not already gender separated) and the natural logarithm of the fasting level of hs-GH at baseline. To investigate if fasting hs-GH was affected by treatment with fluvastatin or metoprolol we performed multiple regression analysis with ΔGH (baseline value subtracted from 12 month value) as the dependent variable and the treatment groups as independent variables.

[4] = system: patients with acute myocardial infarction; assay: AMI cohort: Cox regression and Kaplan-Meier analysis for MACE at 2 years post-AMI
Method: We studied 953 STEMI and NSTEMI patients admitted to University Hospitals of Leicester NHS trust between August 2004 and April 2007. This observational cohort study complied with the Declaration of Helsinki and was approved by the local ethics committee; written informed consent was obtained from patients. […] Patients with known malignancy, renal replacement therapy or surgery in the previous month were excluded. Estimated glomerular filtration rate (eGFR) was calculated from the simplified Modification of Diet in Renal Disease formula (Smilde T D, van Veldhuisen D J, Navis G, Voors A A, Hillege H L. Drawbacks and prognostic value of formulas estimating renal function in patients with chronic heart failure and systolic dysfunction. Circulation 2006; 114:1572-80). All patients received standard medical treatment and revascularisation was at the discretion of the attending physician.
Plasma samples: Blood samples (anticoagulated with EDTA and aprotinin) were drawn after 15 minutes bed rest, immediately after diagnosis and within 36 h of symptom onset. Plasma was stored at −80° C. until assayed in a single batch for blinded determination of plasma hGH.
During follow-up over 2 years, there were 281 MACE, the primary composite endpoint (comprising 117 deaths, 71 HF hospitalisations and 93 re-AMIs). […]

[5] = FEMALE, all receiving the drug vs individuals not receiving it
[6] = FEMALE, model All groups, each compared against placebo
[7] = MALE, all receiving the drug vs individuals not receiving it
[8] = MALE, model All groups, each compared against placebo
[9] = gender ALL, all receiving the drug vs individuals not receiving it
[10] = gender ALL, model All groups, each compared against placebo

| Compound | LDL-C, mean [1] [mmol/L] | IMTbulb, median [2] | IMTcca, median [2] | Growth Hormone - females, geometric mean [3] [pg/mL] | Growth Hormone - males, geometric mean [3] [pg/mL] | B, multiple linear regression of ΔGH (12 months - baseline) vs treatment group [3, 5] | B, multiple linear regression of ΔGH (12 months - baseline) vs treatment group [3, 6] | B, multiple linear regression of ΔGH (12 months - baseline) vs treatment group [3, 7] | B, multiple linear regression of ΔGH (12 months - baseline) vs treatment group [3, 8] | B, multiple linear regression of ΔGH (12 months - baseline) vs treatment group [3, 9] | B, multiple linear regression of ΔGH (12 months - baseline) vs treatment group [3, 10] | Univariable HR (95% CI) for MACE [4] |
| --- | --- | --- | --- | --- | --- | --- | --- | --- | --- | --- | --- | --- |
| CC(C)n1c(/C=C/C(O)CC(O)CC(=O)O)c(-c2ccc(F)cc2)c2ccccc21 (centres unmarked) [Fluvastatin] | 3.27 | 2.02 | 0.87 | 810 | 160 | 0.41 | 0.02 | −0.37 | −0.36 | 0.12 | −0.11 | – |
| CC(=O)Oc1ccccc1C(=O)O [Aspirin] | – | – | – | – | – | – | – | – | – | – | – | 0.54 (0.41-0.72) |
| COCCc1ccc(OCC(O)CNC(C)C)cc1 (centres unmarked) [Metoprolol] | 4.17 | 1.89 | 0.90 | 860 | 170 | 0.33 | −0.06 | −0.27 | −0.26 | 0.13 | −0.11 | – |
